PubChem BioAssay (NCI)
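1) Cells in 96-well plates. 2) Compound, 48 h, 5 concentrations. 3) Linear interpolation between surrounding doses. 4) Unreached endpoint = highest concentration. GI50 marks 50% less growth. At the TGI there is no net growth.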

Legend:
Experiment in all cases: NCI tumour cell line growth inhibition, 48 h
SF-295 CNS = test system: SF-295 CNS
LOX IMVI melanoma = test system: LOX IMVI melanoma
SK-MEL-5 melanoma = test system: SK-MEL-5 melanoma
NCI-H460 lung = test system: NCI-H460 lung
786-0 renal = test system: 786-0 renal
MDA-MB-435 = test system: MDA-MB-435
OVCAR-3 ovarian = test system: OVCAR-3 ovarian
NCI-H226 lung = test system: NCI-H226 lung
MALME-3M melanoma = test system: MALME-3M melanoma
SN12C renal = test system: SN12C renal
SF-539 CNS = test system: SF-539 CNS
MOLT-4 leukemia = test system: MOLT-4 leukemia
SW-620 colon = test system: SW-620 colon
SK-MEL-2 melanoma = test system: SK-MEL-2 melanoma
MDA-MB-231 breast = test system: MDA-MB-231 breast
HCT-15 colon = test system: HCT-15 colon
ACHN renal = test system: ACHN renal
KM12 colon = test system: KM12 colon
HCT-116 colon = test system: HCT-116 colon
TK-10 renal = test system: TK-10 renal
RPMI-8226 leukemia = test system: RPMI-8226 leukemia
SK-MEL-28 melanoma = test system: SK-MEL-28 melanoma
UACC-62 melanoma = test system: UACC-62 melanoma
T-47D breast = test system: T-47D breast
OVCAR-4 ovarian = test system: OVCAR-4 ovarian
HS 578T breast = test system: HS 578T breast
SNB-75 CNS = test system: SNB-75 CNS
NCI/ADR-RES ovarian = test system: NCI/ADR-RES ovarian
HL-60(TB) leukemia = test system: HL-60(TB) leukemia
CAKI-1 renal = test system: CAKI-1 renal
NCI-H522 lung = test system: NCI-H522 lung
RXF 393 renal = test system: RXF 393 renal
K-562 leukemia = test system: K-562 leukemia
IGROV1 ovarian = test system: IGROV1 ovarian
NCI-H23 lung = test system: NCI-H23 lung
A498 renal = test system: A498 renal
BT-549 breast = test system: BT-549 breast
MCF7 breast = test system: MCF7 breast
UO-31 renal = test system: UO-31 renal
SK-OV-3 ovarian = test system: SK-OV-3 ovarian
EKVX NSCLC = test system: EKVX NSCLC
CCRF-CEM leukemia = test system: CCRF-CEM leukemia
SF-268 CNS = test system: SF-268 CNS
HCC-2998 colon = test system: HCC-2998 colon
SNB-19 CNS = test system: SNB-19 CNS
HOP-92 NSCLC = test system: HOP-92 NSCLC
SR leukemia = test system: SR leukemia
PC-3 prostate = test system: PC-3 prostate
DU-145 prostate = test system: DU-145 prostate
OVCAR-5 ovarian = test system: OVCAR-5 ovarian
M14 melanoma = test system: M14 melanoma
HT29 colon = test system: HT29 colon
HOP-62 NSCLC = test system: HOP-62 NSCLC
COLO 205 colon = test system: COLO 205 colon
OVCAR-8 ovarian = test system: OVCAR-8 ovarian
UACC-257 melanoma = test system: UACC-257 melanoma
U251 CNS = test system: U251 CNS
A549 NSCLC = test system: A549 NSCLC

## CCCCCCCCNC(C)C(O)c1ccc(SC(C)C)cc1 (centres undefined)
SF-295 CNS
  GI50: 1680 nM
  TGI: 3.2 µM
LOX IMVI melanoma
  GI50: 1540 nM
  TGI: 2920 nM
SK-MEL-5 melanoma
  GI50: 1620 nM
  TGI: 2990 nM
NCI-H460 lung
  GI50: 1850 nM
  TGI: 3.56 µM
786-0 renal
  GI50: 1730 nM
  TGI: 3.34 µM
MDA-MB-435
  GI50: 1690 nM
  TGI: 3.21 µM
OVCAR-3 ovarian
  GI50: 1980 nM
  TGI: 3.46 µM
NCI-H226 lung
  GI50: 1810 nM
  TGI: 3.85 µM
MALME-3M melanoma
  GI50: 1980 nM
  TGI: 3.81 µM
SN12C renal
  GI50: 1570 nM
  TGI: 3.13 µM
SF-539 CNS
  GI50: 1900 nM
  TGI: 3.4 µM
MOLT-4 leukemia
  GI50: 2480 nM
  TGI: 5.27 µM
SW-620 colon
  GI50: 1740 nM
  TGI: 3.29 µM
SK-MEL-2 melanoma
  GI50: 2050 nM
  TGI: 3.74 µM
MDA-MB-231 breast
  GI50: 1800 nM
  TGI: 3.31 µM
HCT-15 colon
  GI50: 1700 nM
  TGI: 3.29 µM
ACHN renal
  GI50: 1870 nM
  TGI: 3.3 µM
KM12 colon
  GI50: 1760 nM
  TGI: 3.18 µM
HCT-116 colon
  GI50: 1590 nM
  TGI: 3.11 µM
TK-10 renal
  GI50: 1700 nM
  TGI: 3.13 µM
RPMI-8226 leukemia
  GI50: 2060 nM
  TGI: 4.91 µM
SK-MEL-28 melanoma
  GI50: 1830 nM
  TGI: 3.27 µM
UACC-62 melanoma
  GI50: 1530 nM
  TGI: 2950 nM
T-47D breast
  GI50: 1320 nM
  TGI: 2850 nM
OVCAR-4 ovarian
  GI50: 1790 nM
  TGI: 3.25 µM
HS 578T breast
  GI50: 1980 nM
  TGI: 4.61 µM
SNB-75 CNS
  GI50: 1720 nM
  TGI: 3.26 µM
NCI/ADR-RES ovarian
  GI50: 1570 nM
  TGI: 3.17 µM
HL-60(TB) leukemia
  GI50: 2200 nM
  TGI: 4.07 µM
CAKI-1 renal
  GI50: 1540 nM
  TGI: 3.08 µM
NCI-H522 lung
  GI50: 1430 nM
  TGI: 2950 nM
RXF 393 renal
  GI50: 1450 nM
  TGI: 2810 nM
K-562 leukemia
  GI50: 1880 nM
  TGI: 3.8 µM
IGROV1 ovarian
  GI50: 1810 nM
  TGI: 3.38 µM
NCI-H23 lung
  GI50: 1580 nM
  TGI: 3.13 µM
A498 renal
  GI50: 1500 nM
  TGI: 2860 nM
BT-549 breast
  GI50: 1820 nM
  TGI: 3.33 µM
MCF7 breast
  GI50: 1800 nM
  TGI: 3.32 µM
UO-31 renal
  GI50: 1770 nM
  TGI: 3.32 µM
SK-OV-3 ovarian
  GI50: 1630 nM
  TGI: 2980 nM
EKVX NSCLC
  GI50: 1440 nM
  TGI: 2980 nM
CCRF-CEM leukemia
  GI50: 2440 nM
  TGI: 7.19 µM
SF-268 CNS
  GI50: 1670 nM
  TGI: 3.14 µM
HCC-2998 colon
  GI50: 1580 nM
  TGI: 3.02 µM
SNB-19 CNS
  GI50: 1640 nM
  TGI: 3.28 µM
HOP-92 NSCLC
  GI50: 1.17 µM
  TGI: 2530 nM
SR leukemia
  GI50: 1990 nM
  TGI: 5.71 µM
PC-3 prostate
  GI50: 1580 nM
  TGI: 3.02 µM
DU-145 prostate
  GI50: 1860 nM
  TGI: 3.27 µM
OVCAR-5 ovarian
  GI50: 1760 nM
  TGI: 3.23 µM
M14 melanoma
  GI50: 1720 nM
  TGI: 3.26 µM
HT29 colon
  GI50: 654 nM
  TGI: 1910 nM
HOP-62 NSCLC
  GI50: 1530 nM
  TGI: 2870 nM
COLO 205 colon
  GI50: 1620 nM
  TGI: 3 µM

## O=C(Cn1c(C(=O)c2ccc(Cl)cc2)nc(-c2ccccc2)c1-c1ccccc1)c1ccc(Cl)cc1
SF-295 CNS
  GI50: > 100000 nM
  TGI: > 100 µM
LOX IMVI melanoma
  GI50: > 100000 nM
  TGI: > 100000 nM
SK-MEL-5 melanoma
  GI50: > 100000 nM
  TGI: > 100000 nM
NCI-H460 lung
  GI50: > 100000 nM
  TGI: > 100 µM
786-0 renal
  GI50: > 100000 nM
  TGI: > 100 µM
MDA-MB-435
  GI50: > 100000 nM
  TGI: > 100 µM
OVCAR-3 ovarian
  GI50: > 100000 nM
  TGI: > 100 µM
NCI-H226 lung
  GI50: > 100000 nM
  TGI: > 100 µM
OVCAR-8 ovarian
  GI50: > 100 µM
  TGI: > 100 µM
MALME-3M melanoma
  GI50: > 100000 nM
  TGI: > 100 µM
SN12C renal
  GI50: > 100000 nM
  TGI: > 100 µM
SF-539 CNS
  GI50: > 100000 nM
  TGI: > 100 µM
MOLT-4 leukemia
  GI50: > 100000 nM
  TGI: > 100 µM
SW-620 colon
  GI50: > 100000 nM
  TGI: > 100 µM
SK-MEL-2 melanoma
  GI50: > 100000 nM
  TGI: > 100 µM
MDA-MB-231 breast
  GI50: > 100000 nM
  TGI: > 100 µM
UACC-257 melanoma
  GI50: > 100 µM
  TGI: > 100 µM
U251 CNS
  GI50: > 100 µM
  TGI: > 100 µM
HCT-15 colon
  GI50: > 100000 nM
  TGI: > 100 µM
ACHN renal
  GI50: > 100000 nM
  TGI: > 100 µM
KM12 colon
  GI50: > 100000 nM
  TGI: > 100 µM
HCT-116 colon
  GI50: > 100000 nM
  TGI: > 100 µM
TK-10 renal
  GI50: > 100000 nM
  TGI: > 100 µM
RPMI-8226 leukemia
  GI50: > 100000 nM
  TGI: > 100 µM
SK-MEL-28 melanoma
  GI50: > 100000 nM
  TGI: > 100 µM
UACC-62 melanoma
  GI50: > 100000 nM
  TGI: > 100000 nM
T-47D breast
  GI50: > 100000 nM
  TGI: > 100000 nM
OVCAR-4 ovarian
  GI50: > 100000 nM
  TGI: > 100 µM
HS 578T breast
  GI50: > 100000 nM
  TGI: > 100 µM
SNB-75 CNS
  GI50: > 100000 nM
  TGI: > 100 µM
NCI/ADR-RES ovarian
  GI50: > 100000 nM
  TGI: > 100 µM
HL-60(TB) leukemia
  GI50: > 100000 nM
  TGI: > 100 µM
CAKI-1 renal
  GI50: > 100000 nM
  TGI: > 100 µM
A549 NSCLC
  GI50: > 100 µM
  TGI: > 100 µM
NCI-H522 lung
  GI50: > 100000 nM
  TGI: > 100000 nM
RXF 393 renal
  GI50: > 100000 nM
  TGI: > 100000 nM
K-562 leukemia
  GI50: > 100000 nM
  TGI: > 100 µM
IGROV1 ovarian
  GI50: > 100000 nM
  TGI: > 100 µM
NCI-H23 lung
  GI50: > 100000 nM
  TGI: > 100 µM
A498 renal
  GI50: > 100000 nM
  TGI: > 100000 nM
BT-549 breast
  GI50: > 100000 nM
  TGI: > 100 µM
MCF7 breast
  GI50: > 100000 nM
  TGI: > 100 µM
UO-31 renal
  GI50: > 100000 nM
  TGI: > 100 µM
SK-OV-3 ovarian
  GI50: > 100000 nM
  TGI: > 100000 nM
EKVX NSCLC
  GI50: > 100000 nM
  TGI: > 100000 nM
CCRF-CEM leukemia
  GI50: > 100000 nM
  TGI: > 100 µM
SF-268 CNS
  GI50: > 100000 nM
  TGI: > 100 µM
HCC-2998 colon
  GI50: > 100000 nM
  TGI: > 100 µM
SNB-19 CNS
  GI50: > 100000 nM
  TGI: > 100 µM
HOP-92 NSCLC
  GI50: 23.9 µM
  TGI: > 100000 nM
SR leukemia
  GI50: > 100000 nM
  TGI: > 100 µM
PC-3 prostate
  GI50: > 100000 nM
  TGI: > 100 µM
DU-145 prostate
  GI50: > 100000 nM
  TGI: > 100 µM
OVCAR-5 ovarian
  GI50: > 100000 nM
  TGI: > 100 µM
M14 melanoma
  GI50: > 100000 nM
  TGI: > 100 µM
HT29 colon
  GI50: > 100000 nM
  TGI: > 100000 nM
HOP-62 NSCLC
  GI50: > 100000 nM
  TGI: > 100000 nM
COLO 205 colon
  GI50: > 100000 nM
  TGI: > 100 µM
